# Laboratory results: patent publication US9856511B2, “Protease deubiquitinating inhibitor screening” (priority 2011, dated 2018)
# Assays:
# [1] = biological target: T1, human 20S proteasome (Homo sapiens, UniProt P28072+P28074+Q99436); assay: In vitro proteasome activity assay (Suc-LLVY-AMC, Z-LLE-AMC, Boc-LRR-AMC); type: biochemical; details: molar excess of b-AP15
# T1 construct: purchased Boston Biochem E-360
# Experimental: 20S CP contains the β1, β2 and […] proteolytic subunits responsible for caspase-like, trypsin-like and chymotrypsin-like activities of the proteasome, respectively (18).
# In vitro proteasome activity assays were performed in black 96-well microtiter plates using human 20S proteasome (Boston Biochem) in reaction buffer (25 mM Hepes, 0.5 mM EDTA, 0.03% SDS) with Suc-LLVY-AMC, Z-LLE-AMC or Boc-LRRAMC used as substrates for proteasome activity. De-ubiquitinase activity assays were performed with human 19S RP (Boston Biochem) with ubiquitin-AMC as substrate. For xenograft studies a 100-μl-cell suspension containing 1×10^6 FaDu head-neck or 2×10^5 Lewis Lung Carcinoma (LLC) cells were injected subcutaneously into the flank of SCID or C57BL/6J mice. Upon tumor take mice were randomized into control or treatment groups and administered with 5 mg kg^−1 b-AP15 or vehicle. In vivo levels of apoptosis and cell death were determined from the detection of caspase cleaved and total levels of cytokeratin-18 in plasma using M30 Apoptosense® and M65 ELISA®s assays (Peviva). […]
# In vitro proteasome activity assays using 20S CP (2 nM) (Boston Biochem) were performed at 37° C. in 100-μl reaction buffer (25 mM Hepes, 0.5 mM EDTA, 0.03% SDS). […] Fluorescence was monitored using Wallac Multilabel counter or Tecan Infinite M1000 equipped with 360 nm excitation and 460 nm emission filters. […]
# [2] = biological target: T2, UCHL1 (Homo sapiens, UniProt P09936); assay: HA-UbVS competitive labelling, non-proteasomal DUB; type: binding
# T2 sequence (P09936 1-223): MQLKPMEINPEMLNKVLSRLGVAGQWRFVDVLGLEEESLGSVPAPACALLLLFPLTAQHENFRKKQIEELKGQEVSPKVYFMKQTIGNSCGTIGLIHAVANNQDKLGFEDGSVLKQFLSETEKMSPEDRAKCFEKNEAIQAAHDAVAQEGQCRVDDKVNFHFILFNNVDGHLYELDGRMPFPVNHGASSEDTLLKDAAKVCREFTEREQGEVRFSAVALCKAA
# From the text: (§1) The deubiquitinating activity of the proteasome is attributed to the action of three DUBs, UCHL5, USP14 and POH1, all localized within the 19S RP 26-28. Both UCHL5 and USP14 are sensitive to N-ethylmaleimide (NEM), a general inhibitor of cysteine proteases, whereas POH1 is insensitive to inhibition by NEM but sensitive to metal chelators such as N,N,N,N-tetrakis-(2-pyridylmethyl)ethylenediamine (TPEN) (29). […] To identify specifically which DUBs were inhibited by b-AP15 treatment, competitive labelling experiments were performed using hemagglutinin tagged ubiquitin vinylsulphonone (HA-UbVS), an active site directed probe that irreversibly reacts with DUBs of the cysteine class (26).
# (§2) For labelling of DUBs in cell lysates sub confluent cells were harvested by trypsinization, washed three times with PBS, and centrifuged at 1500 RPM for 5 min. Cell pellets were lysed with buffer (50 mM HEPES pH 7.4, 250 mM sucrose, 10 mM MgCl2, 2 mM ATP, 1 mM DTT) on ice for 15 min. Debris was removed by centrifugation and 25 μg of protein was labelled with 1 μM HA-UbVS for 30 min at 37° C. Samples were resolved by SDS-PAGE and analyzed by immunoblotting with indicated antibodies.
# [3] = biological target: T3, USP5 (Homo sapiens, UniProt P45974); assay: HA-UbVS competitive labelling, non-proteasomal DUB; type: binding
# T3 sequence (P45974 1-858): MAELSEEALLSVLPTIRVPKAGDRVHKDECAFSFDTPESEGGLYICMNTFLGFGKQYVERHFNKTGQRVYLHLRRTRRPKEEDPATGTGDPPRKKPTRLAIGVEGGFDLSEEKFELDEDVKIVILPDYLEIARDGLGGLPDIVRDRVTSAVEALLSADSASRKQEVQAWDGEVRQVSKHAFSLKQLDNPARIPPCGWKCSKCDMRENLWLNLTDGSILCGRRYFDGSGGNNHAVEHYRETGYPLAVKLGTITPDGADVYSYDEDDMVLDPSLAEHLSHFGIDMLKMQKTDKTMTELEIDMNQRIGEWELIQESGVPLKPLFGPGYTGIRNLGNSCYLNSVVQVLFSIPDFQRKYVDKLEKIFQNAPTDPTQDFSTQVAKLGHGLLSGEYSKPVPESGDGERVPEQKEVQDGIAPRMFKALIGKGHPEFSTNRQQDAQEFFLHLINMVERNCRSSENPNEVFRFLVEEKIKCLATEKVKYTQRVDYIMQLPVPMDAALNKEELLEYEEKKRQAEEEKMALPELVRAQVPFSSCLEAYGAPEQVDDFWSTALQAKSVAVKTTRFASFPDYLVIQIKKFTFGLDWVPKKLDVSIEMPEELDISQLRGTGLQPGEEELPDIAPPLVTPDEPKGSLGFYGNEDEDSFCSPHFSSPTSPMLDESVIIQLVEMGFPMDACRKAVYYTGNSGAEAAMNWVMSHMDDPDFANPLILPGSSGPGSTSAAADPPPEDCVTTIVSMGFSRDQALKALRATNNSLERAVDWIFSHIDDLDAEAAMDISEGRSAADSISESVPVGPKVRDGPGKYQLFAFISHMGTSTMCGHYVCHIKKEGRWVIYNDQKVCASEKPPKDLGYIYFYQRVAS
# From the text: as §1, §2
smiles,measurement,setting,value
C=CC(=O)N1C/C(=C\c2ccc([N+](=O)[O-])cc2)C(=O)/C(=C/c2ccc([N+](=O)[O-])cc2)C1 [b-AP15],"caspase-like, trypsin-like and chymotrypsin-like activities of the proteasome",[1],do not show alteration
same,activity of non-proteasomal DUB UCHL1,[2],without affecting the activity
same,activity of non-proteasomal DUB USP5,[3],without affecting the activity
